Activity calls are given as the source filed them. How the calls were made is not given here.
These molecules were tested against glutathione S-transferase (GST-GSH binding) (assay: GST–glutathione interaction disruption – biochemical, multiplex beads, flow cytometry, HPSMTB buffer, profiling panel (AID 1324;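 further: glutathione beads loaded with GST-green fluorescent protein and no fluorescent Bim peptide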)). Details: multiplex bead flow cytometry, MCF.

Structure (SMILES) | EC50
O=C1c2ccccc2-c2onc3ccc(NCCCn4ccnc4)c1c23 | inactive
Cc1ccc(O)c(NC2=C(Cl)C(=O)N(Cc3ccccc3)C2=O)c1 | inactive
COc1ccccc1Nc1nc(-c2c(C)nc3ncccn23)cs1 | inactive
CN(C)[C@@H]1C(=O)C(C(=O)NCN2CCCC2)=C(O)[C@@]2(O)C(=O)C3=C(O)c4c(O)cccc4[C@@](C)(O)C3CC12 (some centres undefined) | inactive

Same assay, conditions: multiplex bead flow cytometry, MCF, concentration not given here

Structure (SMILES) | percent span inhibition
NC(=O)c1c(NC(=O)C2CCCO2)sc2c1CCCC2 (centres undefined) | inactive
Oc1ccc(NCc2ccccc2OCc2ccccc2)cc1 | inactive
Brc1ccc2ncnc(Nc3ccc(N4CCOCC4)cc3)c2c1 | inactive
CCN1CCN(c2ccc(NC(=O)c3cccc4ncccc34)cc2)CC1 | inactive
Cc1ccc(-c2cc(C(=O)N3CCN(c4ncccn4)CC3)c3cc(Br)ccc3n2)o1 | inactive
COc1ccc(Cl)cc1-n1c(C)cc(C=O)c1C | inactive
COc1ccc(OC)c(-n2c(-c3ccc(C)cc3)n[nH]c2=S)c1 | inactive
c1ccc(-c2nc(N3CCCCCC3)c3ccccc3n2)nc1 | inactive
BrC(=C\c1ccccc1)/C=N/N1CCN(c2ccccc2)CC1 | inactive
Cc1cc(C)cc(NS(=O)(=O)c2ccc3c(c2)c(=O)n(C)c(=O)n3C)c1 | inactive
Cc1c(NC2=C(Cl)C(=O)N(c3ccccc3)C2=O)c(=O)n(-c2ccccc2)n1C | inactive
Cc1c(N=C2C=CC(=O)c3ccccc32)c(=O)n(-c2ccccc2)n1C | inactive
CCn1c(SCC(=O)Nc2ccccc2-c2ccccc2)nnc1-c1ccoc1C | inactive
CCN1CCN(c2cc(C)c3cc(NC(=S)N4CCN(c5ccccc5)CC4)ccc3n2)CC1 | inactive
Cc1cc(C)c2nc3nc(C)cc(C)c3c(N)c2c1 | inactive
O=C(/C=C/c1ccc(-c2ccccc2)o1)c1ccccc1 | inactive
Cc1noc(C)c1CN1C(=O)NC(Cc2ccccc2)(Cc2ccccc2)C1=O | inactive
Cc1c(NC2=C(Cl)C(=O)N(c3ccccc3Cl)C2=O)c(=O)n(-c2ccccc2)n1C | inactive
O=[N+]([O-])c1ccc2[nH]nc(-c3ccccc3)c2c1 | inactive
COc1ccc(N2CCN(C(=O)c3cc(=O)[nH]c4ccccc34)CC2)cc1 | inactive
COc1ccc(-c2noc(COc3ccc4c(c3)OCO4)n2)cc1OC | inactive

Continued, values first:

percent span inhibition | Structure (SMILES)
inactive | CCc1cccc(CC)c1-n1c(-c2cccnc2)n[nH]c1=S
inactive | Cc1cc(NC(=O)CSc2nnc(-c3cccnc3)n2Cc2ccccc2)no1
inactive | COc1ccc(S(=O)(=O)NCCOc2cccc3cccnc23)cc1OC
inactive | COc1ccc2nc(C)cc(SCC(=O)N/N=C/c3ccc(O)cc3O)c2c1
inactive | Cc1[nH]c2ccccc2c1C(=O)COC(=O)c1c(-c2c(F)cccc2Cl)noc1C
inactive | CCOC(=O)c1ccc(N=c2ssnc2Cl)cc1
inactive | CCOC(=O)C1=C(CC)Nc2ccccc2N=C1NC(=O)c1ccc(S(=O)(=O)N2CCOCC2)cc1
inactive | COc1ccc(/C=C/C(=O)Nc2sc(Cc3ccccc3)c(C)c2C(N)=O)cc1
inactive | COCc1cc(CN2CCCC(CNC(=O)c3ccc(F)cc3)C2)ccc1OC (centres undefined)
inactive | CCCCC(C(=O)OCC)C(N)Cc1ccc(F)cc1 (centres undefined)
inactive | CCN(CC)c1ccc(NC(=O)c2ccc(=O)[nH]c2)cc1S(=O)(=O)Nc1ccccc1OC
inactive | Cc1ccccc1-n1nc(SCC(=O)O)sc1=S
inactive | CCOC(=O)c1sc(N)c(C(=O)Nc2ccccc2OC)c1C
inactive | O=C(N/N=C/c1ccncc1)c1cccc(NC(=O)c2ccccc2Cl)c1
inactive | O=C(COCC(=O)NCc1ccccc1)NCc1ccccc1
inactive | Cc1ccc(C(=O)N(CCCN(C)C)c2nc3ccc(Cl)cc3s2)cc1C
inactive | COc1ccc(CC(=O)Nc2ccc(-c3nc4cc(C)ccc4o3)c(O)c2)cc1OC
inactive | Cn1c(=O)c(C(=O)COC(=O)c2cc(-c3ccco3)nc3ccccc23)c(N)n(CC2CC2)c1=O
inactive | CCOC(=O)CCCNC(=O)c1cncc(O)c1
inactive | Cc1ccc(-c2cc(C(=O)OCC(=O)N(C)C3CCS(=O)(=O)C3)c3ccccc3n2)o1 (centres undefined)
inactive | NNC(=O)COc1ccccc1F
inactive | Cc1ccc(OCC(=O)NCc2ccccn2)c(Br)c1
inactive | COC(=O)c1sc(NC(=O)c2ccc(Cn3cc(Cl)cn3)o2)c(C#N)c1C
inactive | O=C(NCCCO)Nc1ccc2nc(-c3ccco3)c(-c3ccco3)nc2c1
